# Results as given in PubChem BioAssay (NCI).
# “And” between values parts separate entries of the source, which are not always exact repeats. Equal entries are not always repeated.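 Following 48 hours of exposure in 96-well plates, responses at five concentrations were used to interpolate endpoints linearly. Here, GI50 denotes the concentration required for 50% inhibition of growth. TGI: concentration producing complete growth inhibition.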 Where a SMILES comes first, the peptide text is derived from it. The star is where a group is joined. Boc = CC(C)(C)OC(=O)*; tBu = CC(C)(C)*
# How the values were obtained:
# Assay in all cases: DTP human tumour cell line panel, 48 h
# KM12 colon = test system: KM12 colon
# ACHN renal = test system: ACHN renal
# SF-539 CNS = test system: SF-539 CNS
# TK-10 renal = test system: TK-10 renal
# A498 renal = test system: A498 renal
# SNB-75 CNS = test system: SNB-75 CNS
# SNB-19 CNS = test system: SNB-19 CNS
# CCRF-CEM leukemia = test system: CCRF-CEM leukemia
# HCT-15 colon = test system: HCT-15 colon
# HOP-62 NSCLC = test system: HOP-62 NSCLC
SMILES,TGI (KM12 colon) [µM],TGI (ACHN renal) [µM],TGI (SF-539 CNS) [µM],TGI (TK-10 renal) [µM],TGI (A498 renal) [µM],TGI (SNB-75 CNS),TGI (SNB-19 CNS) [µM],TGI (CCRF-CEM leukemia) [µM],TGI (HCT-15 colon) [µM],TGI (HOP-62 NSCLC) [µM],GI50 (SNB-19 CNS) [µM],GI50 (HCT-15 colon) [µM]
CC1CCN(c2cc(-c3cc4ccccc4o3)oc(=O)c2C#N)CC1,> 100,> 100,> 100,> 100,> 100,> 100 µM,> 100,> 100,> 100,–,–,–
CC1=C2CC(C)(C)CC(=O)C2(C)CCC1=O (centres undefined),> 100,> 100,> 100,> 100,–,> 100 µM,> 100,> 100,> 100,> 100,–,–
CC(=O)Nc1sccc1S(=O)(=O)c1ccc(Cl)cc1,> 100,> 100,> 100,> 100,–,> 100 µM,> 100,> 100,> 100,–,–,–
Cc1cc(C)c(S(=O)(=O)N(CCCN)OCCCN)c(C)c1,> 100,> 100,> 100,> 100,–,> 100 µM,> 100,> 100,–,> 100,–,–
O=C([O-])C1([n+]2c(-c3ccccc3)cc(-c3ccccc3)cc2-c2ccccc2)CC1,–,> 100,> 100,> 100,> 100,> 100 µM,> 100,> 100,> 100,> 100,–,–
CC(=O)O[C@H]1C[C@@H](OC(C)=O)[C@@](C)(O)[C@@H]2[C@@H](OC(C)=O)[C@@]3(O)[C@H](/C=C(/CCl)[C@H]4O[C@H]4[C@@H](OC(C)=O)[C@@]12C)OC(=O)[C@@H]3C,> 25,> 25,–,> 25,> 25,> 25 µM,> 25,> 25,> 25,> 25,–,–
CC(=O)OC1CC[C@@]2(C)C(=CC[C@@H]3[C@@H]2CC[C@]2(C)C(OC(C)=O)[C@H](n4ccnc4)C[C@@H]32)C1 (some centres undefined),30.4,> 100,29.8,> 100,> 100,> 100 µM,> 100,37.1,30.6,–,–,–
COc1ccc2c(C(=O)c3c(C)n(CCN4CCOCC4)c4ccccc34)cccc2c1,68.2,> 100,> 100,> 100,> 100,–,> 100,27.1,> 100,> 100,–,–
CCCCC1Cc2cc(OC)ccc2-c2n1c1cc(OC)ccc1[n+]2C (centres undefined) (tested in a mixture with another compound),10.7,48,> 44.9,31.9,83.2,87.6 µM,–,25.3,> 56.7,> 61.7,–,–
COc1cccc(-c2[nH]c3cc4c(cc3c(=O)c2C(=O)O)OCO4)c1,> 100,> 100,69.4,–,91.6,> 100 µM,> 100,> 100,> 100,> 100,–,–
Cc1cc(C)nc(NC(=S)Nc2ccc(Cl)cc2)c1,> 100,–,> 100,> 100,> 100,63.7 µM,> 100,> 100,> 100,> 100,–,–
N=C(N)c1ccc(N=Nc2c(O)ccc3cc(O)ccc23)cc1,> 100,> 100,> 100,> 100,–,–,> 100,> 100,> 100,> 100,–,–
COC(=O)c1ccccc1/C=C1\Cc2ccc3ccccc3c2C1C (centres undefined),> 100,> 100,> 100,> 100,> 100,> 100 µM,> 100,> 100,> 100,–,–,–
CC(=O)Oc1ccc2cc(Oc3ccccc3)c(=O)oc2c1,> 100,> 100,> 100,> 100,> 100,> 100 µM,> 100,–,> 100,> 100,–,–
O=C1NC2=NN=C(c3ccc(Br)cc3)CN2NC12c1ccccc1-c1ccccc12,–,> 100,> 100,> 100,> 100,> 100 µM,> 100,–,> 100,> 100,–,–
c1csc(C(NC2=NCCO2)C2CC2)c1 (centres undefined),–,> 100,> 100,–,> 100,> 100 µM,> 100,–,> 100,> 100,–,–
O=C(/C=C\c1ccc(/C=C/C(=O)Nc2cccc(C3=NCCCN3)c2)cc1)Nc1cccc(C2=NCCCN2)c1,> 100,–,> 100,–,> 100,> 100 µM,> 100,> 100,> 100,> 100,–,–
O=C1Nc2ccccc2C1S(=O)(=O)c1ccccc1 (centres undefined),> 100,> 100,–,> 100,> 100,> 100 µM,> 100,> 100,> 100,> 100,–,–
O=c1[nH]c(=S)[nH]c2c(C3OC(CO)C(O)C3O)nsc12 (centres undefined),–,–,> 100,> 100,> 100,> 100 µM,–,> 100,> 100,> 100,–,–
CCOc1cc2c(cc1O)CC[C@@H]1[C@@H]2CC[C@]2(C)[C@@H](O)CC[C@@H]12,10.8,> 96.1,0.0426,–,20,–,7.13,11.9,27.2,15.1,–,–
Fc1ccc(C(OCCN2CC3CC2CN3)c2ccc(F)cc2)cc1 (centres undefined),> 100,> 100,> 100,> 100,> 100,> 100 µM,–,> 100,> 100,> 100,–,–
CO/C(=N\N=C(/c1ccccc1)C(F)(F)F)c1ccncc1,> 100,–,–,–,> 100,> 100 µM,> 100,77,> 100,> 100,–,–
COC(=O)[C@]1(C)[C@H]2C[C@H]3O[C@H]4[C@H](O)[C@@H](O)OC(CC(O)C(C5=CC(=O)OC5)C(C5=CC(=O)OC5)C(O)CC56CCCCC7[C@@H](C)[C@H](C[C@H]8[C@](C)(C(=O)OC)[C@H](O)CC[C@]78C)O[C@H]([C@@H](O)[C@H](O)O5)[C@H]6O)(CCCCC([C@@H]3C)[C@]2(C)CC[C@@H]1O)[C@H]4O (some centres undefined),1.97,–,0.321,0.234,0.737,1.04 µM,1.12,0.333,1.11,0.64,–,–

SMILES,TGI (KM12 colon) [µM],TGI (ACHN renal) [µM],TGI (SF-539 CNS) [µM],TGI (TK-10 renal) [µM],TGI (A498 renal) [µM],TGI (SNB-75 CNS),TGI (SNB-19 CNS) [µM],TGI (CCRF-CEM leukemia) [µM],TGI (HCT-15 colon) [µM],TGI (HOP-62 NSCLC) [µM],GI50 (SNB-19 CNS) [µM],GI50 (HCT-15 colon) [µM]
Cc1cc(OC(=O)Nc2ccc(Cl)cc2)ccc1C(=S)Nc1ccccc1,> 100,> 100,> 100,–,> 100,> 100 µM,> 100,58,> 100,> 100,–,–
CSC1(Cc2ccccn2)C(=O)Nc2cccc([N+](=O)[O-])c21 (centres undefined),> 100,> 100,> 100,> 100,–,> 100 µM,> 100,> 100,> 100,> 100,–,–
Clc1cccc(C2SCc3nc4ccccc4n32)c1 (centres undefined),50.5,99.2,48.2,63.9,–,21.3 µM,–,> 100,44,55.9,–,–
CC(=O)Nc1cc(/C=C\C(=O)N2CC(CCl)c3c2cc(N)c2ccccc32)n(C)n1 (centres undefined),–,–,0.0214,> 100,0.0211,0.0141 µM and 0.0459 µM,–,0.012,> 100,–,0.0277,0.0167
Nc1c(C(=O)c2ccccc2)nnc2ccccc12,67.7,65.4,87.3,54.7,–,–,> 100,–,> 100,> 100,–,–
O/N=C1\CSc2ccccc2C1,> 100,> 100,> 100,> 100,> 100,–,> 100,> 100,> 100,> 100,–,–
CC1=NN(C(=O)c2ccc(C)cc2)C(=O)C1N=Nc1ccccc1C(=O)O (centres undefined),> 100,–,> 100,–,> 100,98.9 µM,> 100,> 100,> 100,> 100,–,–
CCN(CC)C(=S)S,> 100,> 100,> 100,> 100,> 100,–,> 100,9.46,> 100,> 100,–,–
CCN(CC)Cc1ccc(Nc2c3ccccc3nc3ccccc23)cc1,13.1,1.22,3.45,18.8,9.41,–,3.22,8.28,2.56,6.84,–,–
CCOC(=O)C(C)(Cc1ccc(O)cn1)NC(=O)c1ccccc1 (centres undefined),> 100,> 100,> 100,> 100,–,> 100 µM,> 100,> 100,> 100,> 100,–,–
Clc1ccc(-c2nnc(-c3nsc4ccccc34)o2)cc1,> 100,> 100,48.9,51.2,–,24.6 µM,> 100,–,> 100,33.6,–,–
Cc1cc(NS(=O)(=O)c2ccc(NC(=O)c3ccc4nc5ccccc5c(Nc5ccc(S(=O)(=O)Nc6cc(C)on6)cc5)c4c3)cc2)no1,> 50,> 50,> 50,> 50,–,> 50 µM,> 50,> 50,> 50,> 50,–,–
O=C1CC(=O)NC(=NN2C(=O)/C(=C/c3ccc(Cl)cc3)N=C2c2ccccc2)N1,27.6,52.4,32.4,43.2,31.7,60.2 µM,–,24.8,30.8,30.2,–,–
CCOC(=O)[C@H]1Nc2c(cccc2[N+](=O)[O-])C2c3ccccc3CC21 (some centres undefined),> 100,> 100,> 100,> 100,–,> 100 µM,> 100,–,> 100,> 100,–,–
CC(OC(C)(C)C)C(NC(=O)C(N)CCCCNC(=O)OC(C)(C)C)C(=O)NC(Cc1ccccc1)C(=O)O (centres undefined) (H-Lys(Boc)-Thr(tBu)-Phe-OH; configuration not given here),> 100,> 100,> 100,> 100,–,> 100 µM,> 100,> 100,> 100,> 100,–,–
COc1cc(S(=O)(=O)Nc2ccc(-c3csc(/N=C\c4cccs4)n3)cc2)ccc1Cl,–,> 100,> 100,> 100,> 100,81.5 µM,> 100,80.3,> 100,> 100,–,–
Cn1cnnc1SC(F)(F)c1nc2ccccc2o1,> 100,> 100,> 100,> 100,> 100,> 100 µM,–,> 100,> 100,> 100,–,–
Nc1ncnc2c1N=C(c1ccccc1)CC(c1ccccc1)N2 (centres undefined),> 100,> 100,> 100,> 100,–,> 100 µM,> 100,> 100,> 100,> 100,–,–
O=S(=O)(c1ccc2ccccc2c1)N1CCN(S(=O)(=O)c2ccc3ccccc3c2)CC1,> 100,> 100,–,> 100,> 100,60 µM,> 100,> 100,> 100,> 100,–,–
N/C(=N\N=C/c1cc([N+](=O)[O-])cc([N+](=O)[O-])c1O)NO,> 100,–,> 100,–,> 100,> 80.9 µM,> 100,> 100,> 100,> 39.1,–,–
CC(C)(CC1(C)NC(=O)NC1=O)OCc1ccccc1 (centres undefined),> 100,> 100,–,> 100,> 100,> 100 µM,> 100,–,> 100,> 100,–,–
O=S(=O)(/N=C(\NO)Nc1ccc(Cl)cc1)c1cc(S(=O)(=O)c2ccccc2)cs1,64.7,42.3,32.4,45.4,28.4,–,42.6,43.5,44.3,33.5,–,–
